Assay results taken from PMC9144581, “In Vitro Anti-Proliferative, and Kinase Inhibitory Activity of Phenanthroindolizidine Alkaloids Isolated from Tylophora indica” (Plants, 2022).
Where two headings read alike, the source gives them in different places.

Legend:
MCF-7 = assay: MTT anti-proliferative assay, MCF-7; type: cell-based; settings: read-out: IC50 ± SD, MCF-7
Procedure: (§1) The cells proliferations were determined by MTT [3-(4,5-dimethylthiazol-2-yl)-2,5-diphenyltetrazolium bromide] assays, wherein MTT color intensity was directly associated with the number of healthy, living cells. The three cancer cell lines, i.e., MCF-7, Michigan Cancer Foundation-7; HepG2, Human hepatocellular carcinoma; and HCT-116, Human colorectal carcinoma, were obtained from the Laboratory of Parasitology, Faculty of Medicine, Universitas Gadjah Mada Indonesia. The cells were cultured in DMEM (Dulbecco’s Modified Eagle’s Medium) (Gibco, Waltham, MA, USA) with 10% Fetal Bovine Serum (FBS, Gibco), 2% Sodium bicarbonate (NaHCO3, Gibco), and HEPES (4-2(2-hydroxyethyl)-1-piperazine ethane sulfonic acid) (Invitrogen). The cell lines were maintained at 37 °C in a humidified incubator containing 5% CO2. The IC50 values as µM were determined after 48-h of compounds incubations with the cells. The assays were determined as mean ± SD: Standard Deviation (n = 3) (p < 0.005, compared with the standard value).

HepG2 = assay: MTT anti-proliferative assay, HepG2; type: cell-based, Human; settings: read-out: IC50 ± SD, HepG2
Procedure: as §1

HCT-116 = assay: MTT anti-proliferative assay, HCT-116; type: cell-based, Human; settings: read-out: IC50 ± SD, HCT-116
Procedure: as §1

Aurora-A = target: T1, Aurora-A (Homo sapiens, UniProt O14965); assay: Radiometric protein kinase assay, Aurora-A; type: biochemical
T1 construct: purchased Sigma-Aldrich
T1 sequence (O14965 1-403): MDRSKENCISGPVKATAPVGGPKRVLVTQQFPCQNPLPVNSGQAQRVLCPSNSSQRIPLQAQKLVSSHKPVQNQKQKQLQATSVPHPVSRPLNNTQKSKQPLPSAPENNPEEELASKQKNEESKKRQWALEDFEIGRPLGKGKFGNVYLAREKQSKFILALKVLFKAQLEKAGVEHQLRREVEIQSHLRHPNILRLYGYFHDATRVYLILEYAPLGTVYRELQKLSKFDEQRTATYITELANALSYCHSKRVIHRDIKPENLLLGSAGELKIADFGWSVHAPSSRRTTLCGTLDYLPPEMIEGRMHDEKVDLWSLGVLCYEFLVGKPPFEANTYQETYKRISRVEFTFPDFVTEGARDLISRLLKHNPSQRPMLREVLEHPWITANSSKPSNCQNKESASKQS
Procedure: (§2) The radiometric protein kinase assays (RPKA) were used to investigate the kinase inhibitory effects of the isolated compounds. The method was dependent on the incorporation of radioactive ^33P isotope with ATP, and the percentage of phosphorylation was determined using the microplate-scintillation counter (Microbeta, Wallac, Finland) method. The half-maximal inhibitory concentration (IC50) values of compounds were measured by a microplate-scintillation counter. The control mixture (without peptide substrate) measures endogenous phosphorylation of proteins in the Protein Kinase Sample by-^33P-ATP. The purified protein kinases were used as positive controls for the assay (Sigma-Aldrich, St. Louis, MO, USA).

Aurora-B = target: T2, Aurora-B (Homo sapiens, UniProt Q96GD4); assay: Radiometric protein kinase assay, Aurora-B; type: biochemical
T2 construct: purchased Sigma-Aldrich
T2 sequence (Q96GD4 whole entry): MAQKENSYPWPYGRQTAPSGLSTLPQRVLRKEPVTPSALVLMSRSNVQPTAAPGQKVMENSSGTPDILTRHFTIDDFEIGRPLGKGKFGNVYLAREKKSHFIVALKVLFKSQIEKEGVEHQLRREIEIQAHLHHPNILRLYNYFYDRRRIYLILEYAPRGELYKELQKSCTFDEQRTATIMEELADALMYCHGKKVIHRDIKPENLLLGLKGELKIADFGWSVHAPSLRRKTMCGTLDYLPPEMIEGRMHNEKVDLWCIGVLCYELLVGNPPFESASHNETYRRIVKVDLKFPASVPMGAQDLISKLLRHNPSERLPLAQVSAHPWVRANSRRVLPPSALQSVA
Procedure: as §2

[1] = Homo sapiens, MCF7, MTT assay, 48-h incubation, n = 3
[2] = Homo sapiens, HepG2, MTT assay, 48-h incubation, n = 3
[3] = Homo sapiens, HCT-116, MTT assay, 48-h incubation, n = 3
[4] = radiometric kinase assay, 33P-ATP, average of three independent experiments, read-out: IC50 Values, Aurora-A
[5] = radiometric kinase assay, 33P-ATP, average of three independent experiments, read-out: IC50 Values, Aurora-B
[6] = MTT assay, 48-h incubation, n = 3

Row | SMILES | IC50 (MCF-7; [1]) [µM] | IC50 (HepG2; [2]) [µM] | IC50 (HCT-116; [3]) [µM] | IC50 (Aurora-A; [4]) [µM] | IC50 (Aurora-B; [5]) [µM] | IC50 (MCF-7; Homo sapiens, MCF7, 48 h) [µM] | IC50 (HepG2; Homo sapiens, HepG2, 48 h) [µM] | IC50 (HCT-116; Homo sapiens, HCT-116, 48 h) [µM] | IC50 (Aurora-A) [µM] | IC50 (Aurora-B) [µM] | other results
1 | COc1ccc2c3c(c4cc(OC)c(OC)cc4c2c1)C[N+]1([O-])CCC[C@H]1[C@H]3O (stereo partly drawn) [Compound 4, 3,6,7-trimethoxy-14α-hydroxy-phenanthroindolizidine-N-Oxide] | > 200 | 197 | > 200 | > 100 | > 100 | – | – | – | – | – | –
2 | COC(=O)[C@]1(O)C[C@@H](O)[C@@H](O)[C@H](OC(=O)/C=C/c2ccc(O)c(O)c2)C1 [Compound 9, chlorogenic acid methyl ester] | > 200 | > 200 | > 200 | – | – | – | – | – | – | – | –
3 | N.N.[Cl][Pt][Cl] [Cisplatin, reference compound] | – | – | – | – | – | – | – | – | – | – | IC50 (MCF-7; [6]): 5.7 ± 0.76 µM; IC50 (HepG2; [6]): 12.9 ± 0.91 µM; IC50 (HCT-116; [6]): 14.4 ± 1.69 µM
4 | COc1ccc2c3c(c4cc(OC)c(O)cc4c2c1)C[N+]1([O-])CCCC1C3O (stereo not drawn) [Compound 6, 14α-hydroxy-6-demethyltylophorinine N-Oxide] | 12.2 ± 1.81 | 15.3 ± 2.04 | 65.6 ± 2.24 | 2.6 ± 0.86 | 6.5 ± 0.76 | – | – | – | – | – | –
5 | COc1cc2c3c(c4cc(OC)c(OC)cc4c2cc1OC)[C@@H](O)[C@H]1CCCN1C3 [Compound 2, 2,3,6,7-tetramethoxy-14β-hydroxy-phenanthroindolizidine] | 50.7 ± 2.86 | 35.3 ± 2.97 | 75.5 | 16.2 ± 1.43 | 10.2 ± 1.21 | – | – | – | – | – | –
6 | O=C(/C=C/c1ccc(O)c(O)c1)O[C@@H]1C[C@](O)(C(=O)O)C[C@@H](O)[C@H]1O [Compound 8, chlorogenic acid] | 134 | 170 | > 200 | – | – | – | – | – | – | – | –
7 | COc1ccc2c3c(c4cc(OC)c(OC)cc4c2c1)CN1CCC[C@H]1[C@@H]3O [Compound 3, 3,6,7-trimethoxy-14α-hydroxy-phenanthroindolizidine] | – | – | – | – | – | 32 ± 2.64 | 23.8 ± 3.02 | 87 ± 3.08 | 4.1 ± 1.08 | 3.6 ± 0.93 | –
8 | COc1ccc(C2=C(c3ccc(OC)c(OC)c3)CN3CCCC3C2)cc1OC (centres unmarked) [Compound 7, 6,7-Bis (3,4-dimethoxyphenyl)-1,2,3,5,8,8a-hexahydroindolizine] | – | – | – | – | – | > 200 | > 200 | > 200 | > 100 | > 100 | –
9 | COc1cc2c3c(c4cc(OC)c(OC)cc4c2cc1OC)CN1CCC[C@@H]1C3 [Compound 1, (-)-Tylophorine] | – | – | – | – | – | 126 | 40.1 ± 2.94 | 142 ± 3.06 | 21.4 ± 1.24 | 18.3 ± 1.32 | –
10 | COc1ccc2c3c(c4cc(OC)c(O)cc4c2c1)CN1CCC[C@H]1[C@H]3O [Compound 5, 14α-hydroxy-6-demethyl Tylophorinine] | 6.45 ± 2.06 | 4.77 ± 2.11 | 20.1 ± 1.94 | 0.6 ± 0.72 | 1.3 ± 0.58 | – | – | – | – | – | –
